The record followed here is BindingDB's records for doi:10.1016/j.bioorg.2009.09.001 (University of Ljubljana, 2009).

Common to all, as to test: Enzymatic Assay
Common to all, as to conditions: pH 8; 37 °C

Experiment [1] deals with UDP-N-acetylmuramate--L-alanine ligase (Escherichia coli (strain K12), UniProt P17952). Here is the method: (§1) Compounds were tested for their inhibition of the addition of L-Ala, D-Glu, L-Lys or D-Ala-D-Ala to nucleotide precursors catalyzed by MurC from Escherichia coli, MurD from E. coli, MurE from Staphylococcus aureus, and MurF from E coli. The detection of the orthophosphate generated during the reaction was based on the colorimetric Malachite green method.

Experiment [2] deals with T1, UDP-N-acetylmuramoyl-L-alanyl-D-glutamate--L-lysine ligase (Staphylococcus aureus (strain NCTC 8325 / PS 47), UniProt Q2FZP6).
T1 sequence (Q2FZP6 whole entry): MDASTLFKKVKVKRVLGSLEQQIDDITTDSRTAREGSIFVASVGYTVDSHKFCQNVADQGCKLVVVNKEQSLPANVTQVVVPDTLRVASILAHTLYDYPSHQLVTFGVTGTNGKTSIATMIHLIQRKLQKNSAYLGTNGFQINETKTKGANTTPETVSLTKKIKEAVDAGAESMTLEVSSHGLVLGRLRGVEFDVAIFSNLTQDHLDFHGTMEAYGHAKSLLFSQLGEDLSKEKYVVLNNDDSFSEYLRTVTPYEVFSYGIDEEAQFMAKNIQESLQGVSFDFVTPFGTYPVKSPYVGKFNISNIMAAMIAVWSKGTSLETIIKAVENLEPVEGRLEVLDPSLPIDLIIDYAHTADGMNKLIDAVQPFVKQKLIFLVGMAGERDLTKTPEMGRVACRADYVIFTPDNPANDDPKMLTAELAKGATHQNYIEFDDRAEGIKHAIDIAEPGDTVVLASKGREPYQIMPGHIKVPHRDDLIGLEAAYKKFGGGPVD
Here is the method:
as §1

Experiment [3] deals with T2, UDP-N-acetylmuramoyl-tripeptide--D-alanyl-D-alanine ligase (Escherichia coli (strain K12), UniProt P11880).
T2 sequence (P11880 whole entry): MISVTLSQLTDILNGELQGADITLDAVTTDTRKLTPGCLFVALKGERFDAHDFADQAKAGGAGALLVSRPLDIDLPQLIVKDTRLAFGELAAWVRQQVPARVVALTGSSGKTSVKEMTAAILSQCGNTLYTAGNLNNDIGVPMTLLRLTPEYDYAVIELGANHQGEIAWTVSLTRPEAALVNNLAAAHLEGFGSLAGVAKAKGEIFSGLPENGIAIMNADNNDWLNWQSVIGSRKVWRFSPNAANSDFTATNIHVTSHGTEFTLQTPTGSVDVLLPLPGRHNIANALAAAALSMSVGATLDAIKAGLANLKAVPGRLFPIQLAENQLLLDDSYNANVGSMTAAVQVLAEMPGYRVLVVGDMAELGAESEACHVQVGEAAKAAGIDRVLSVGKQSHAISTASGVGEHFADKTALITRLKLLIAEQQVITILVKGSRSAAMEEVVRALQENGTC
Here is the method: as §1

UDP-N-acetylmuramate--L-alanine ligase, sequence (P17952 whole entry): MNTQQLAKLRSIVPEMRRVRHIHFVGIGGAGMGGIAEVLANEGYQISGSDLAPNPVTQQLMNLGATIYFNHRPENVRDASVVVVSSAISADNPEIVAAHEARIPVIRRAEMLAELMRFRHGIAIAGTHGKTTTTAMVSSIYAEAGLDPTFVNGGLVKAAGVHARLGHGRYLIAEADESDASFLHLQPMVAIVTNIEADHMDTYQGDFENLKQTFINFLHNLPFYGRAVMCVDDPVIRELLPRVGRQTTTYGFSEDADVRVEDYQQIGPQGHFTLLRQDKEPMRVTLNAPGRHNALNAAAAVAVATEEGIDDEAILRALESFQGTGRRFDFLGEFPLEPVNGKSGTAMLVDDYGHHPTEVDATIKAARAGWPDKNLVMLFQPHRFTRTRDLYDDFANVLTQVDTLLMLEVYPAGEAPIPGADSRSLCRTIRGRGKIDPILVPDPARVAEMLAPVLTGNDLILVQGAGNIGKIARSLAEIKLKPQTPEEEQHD

Turning to `CCc1ccc(S(=O)(=O)NCC(CN2CCOCC2)OP(=O)(O)O)cc1` (stereo not drawn) [HEA derivative, 7f], the IC50 (usually the point on the concentration scale where inhibition reaches its midpoint) was determined as 760 µM in experiment [1], 61 µM in experiment [2] and 360 µM in experiment [3].
The matching figures for `O=P(O)(O)OC(CNS(=O)(=O)c1ccc(C(F)(F)F)cc1)CN1CCOCC1` (stereo not drawn) [MurC/D/E/F inhibitor (compound 68)]: 200 µM, 57 µM and 240 µM.
On to `O=P(O)(O)OC(CNS(=O)(=O)c1cccc(C(F)(F)F)c1)CN1CCOCC1` (stereo not drawn) [HEA derivative, 7d], for which the IC50 amounted to 530 µM in experiment [1], 160 µM in experiment [2] and 150 µM in experiment [3].
The matching figures for `Cc1ccc(S(=O)(=O)NCC(CN2CCOCC2)OP(=O)(O)O)cc1` (stereo not drawn) [HEA derivative, 7e]: 540 µM, 120 µM and 560 µM.
Take `O=P(O)(O)OC(CNS(=O)(=O)c1ccc(F)cc1)CN1CCOCC1` (stereo not drawn) [HEA derivative, 7b]: the IC50 came to 790 µM in experiment [1], 120 µM in experiment [2] and 270 µM in experiment [3].
As for `COc1ccc(S(=O)(=O)NCC(CN2CCOCC2)OP(=O)(O)O)cc1` (stereo not drawn), the IC50 in experiment [1] came out at 490 µM; in experiment [2] it was 6 µM; in experiment [3] it was 530 µM.
